{"source": "patent US20130225615A1", "about": "“2-CYCLOQUINAZOLINE DERIVATIVES AND METHODS OF USE THEREOF” (AMBIT BIOSCIENCES CORPORATION, priority 2010, published 2013)", "key": {"TYK2": {"biological_target": "T1, TYK2 (Homo sapiens, UniProt P29597)", "T1 construct": "made in house", "T1 sequence (P29597 whole entry, the tested form may be a part)": "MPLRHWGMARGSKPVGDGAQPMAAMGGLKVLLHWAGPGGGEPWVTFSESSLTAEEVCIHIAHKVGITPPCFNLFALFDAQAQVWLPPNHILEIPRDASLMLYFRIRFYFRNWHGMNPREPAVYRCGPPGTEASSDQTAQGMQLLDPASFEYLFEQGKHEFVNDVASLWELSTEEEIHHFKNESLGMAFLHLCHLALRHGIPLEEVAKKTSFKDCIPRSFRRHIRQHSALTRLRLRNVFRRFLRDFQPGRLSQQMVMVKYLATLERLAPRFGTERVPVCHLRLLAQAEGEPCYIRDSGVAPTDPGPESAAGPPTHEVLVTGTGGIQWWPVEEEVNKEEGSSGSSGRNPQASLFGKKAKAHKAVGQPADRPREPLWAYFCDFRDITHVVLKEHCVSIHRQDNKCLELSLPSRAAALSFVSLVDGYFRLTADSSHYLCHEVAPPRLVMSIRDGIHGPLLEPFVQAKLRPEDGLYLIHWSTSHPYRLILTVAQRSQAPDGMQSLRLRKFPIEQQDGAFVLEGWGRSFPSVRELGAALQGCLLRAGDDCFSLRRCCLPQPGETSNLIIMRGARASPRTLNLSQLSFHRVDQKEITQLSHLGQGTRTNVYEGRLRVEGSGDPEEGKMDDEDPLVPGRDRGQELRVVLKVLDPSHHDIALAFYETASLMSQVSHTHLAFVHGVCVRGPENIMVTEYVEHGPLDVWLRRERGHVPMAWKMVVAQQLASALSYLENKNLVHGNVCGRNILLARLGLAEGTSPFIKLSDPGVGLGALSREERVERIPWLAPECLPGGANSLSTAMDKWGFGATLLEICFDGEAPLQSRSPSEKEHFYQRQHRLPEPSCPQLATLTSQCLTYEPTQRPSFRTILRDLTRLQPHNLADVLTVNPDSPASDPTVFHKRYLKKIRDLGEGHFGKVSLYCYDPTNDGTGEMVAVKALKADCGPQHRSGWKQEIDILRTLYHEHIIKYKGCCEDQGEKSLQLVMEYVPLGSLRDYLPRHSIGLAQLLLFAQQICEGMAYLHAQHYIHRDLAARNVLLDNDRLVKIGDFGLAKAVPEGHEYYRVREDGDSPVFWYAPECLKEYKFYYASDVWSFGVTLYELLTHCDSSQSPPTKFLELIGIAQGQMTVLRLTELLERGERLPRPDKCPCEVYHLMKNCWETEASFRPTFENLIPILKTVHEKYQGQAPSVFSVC", "assay": "Competition binding assay, TYK2", "text": "(§1) Determination of Binding Constants (Kd) of the Compounds Against JAK Kinases\n(§2) Competition binding assays used herein were developed, validated and performed as described in Fabian et al., Nature Biotechnology 2005, 23,329-336. Kinases were produced as fusions to T7 phage (See, Fabian et al. or WO04/015142) or alternatively, the kinases were expressed in HEK-293 cells and subsequently tagged with DNA for PCR detection (See, WO08/005,310). For the binding assays, streptavidin-coated magnetic beads were treated with biotinylated affinity ligands for 30 min at rt to generate affinity resins. The liganded beads were blocked with excess biotin and washed with blocking buffer (SeaBlock (Pierce), 1% BSA, 0.05% Tween 20, 1 mM DTT) to remove unbound ligand and to reduce non-specific binding. Binding reactions were assembled by combining kinase, liganded affinity beads, and test compounds in 1× binding buffer (20% SeaBlock, 0.17×PBS, 0.05% Tween 20, 6 mM DTT). Test compounds were prepared as 100× stocks in DMSO and rapidly diluted into the aqueous environment. DMSO was added to control assays lacking a test compound. Primary screen interactions were performed in polypropylene 384-well plates in a final volume of 34 μL, while Kd determinations were performed in polystyrene 96-well plates in a final volume of 135 μL. The assay plates were incubated at room temperature with shaking for 1 hour, long enough for binding reactions to reach equilibrium, and the affinity beads were washed extensively with wash buffer (1×PBS, 0.05% Tween 20) to remove unbound protein. The beads were then resuspended in elution buffer (1×PBS, 0.05% Tween 20, 2 μM non-biotinylated affinity ligand) and incubated at room temperature with shaking for 30 min. The kinase concentration in the eluates was measured by quantitative PCR. Each kinase was tested individually against each compound. Kds were determined using eleven serial threefold dilutions. A selectivity score, which is a quantitative measure of selectivity of a compound against a panel of enzymes, may be calculated for a compound by dividing the number of enzymes for which a compound meets a set criteria, (for example, a binding constant of 100 nM or less), by the total number of enzymes tested."}, "JAK2": {"biological_target": "T2, JAK2 (Homo sapiens, UniProt O60674)", "T2 construct": "made in house", "T2 sequence (O60674 whole entry)": "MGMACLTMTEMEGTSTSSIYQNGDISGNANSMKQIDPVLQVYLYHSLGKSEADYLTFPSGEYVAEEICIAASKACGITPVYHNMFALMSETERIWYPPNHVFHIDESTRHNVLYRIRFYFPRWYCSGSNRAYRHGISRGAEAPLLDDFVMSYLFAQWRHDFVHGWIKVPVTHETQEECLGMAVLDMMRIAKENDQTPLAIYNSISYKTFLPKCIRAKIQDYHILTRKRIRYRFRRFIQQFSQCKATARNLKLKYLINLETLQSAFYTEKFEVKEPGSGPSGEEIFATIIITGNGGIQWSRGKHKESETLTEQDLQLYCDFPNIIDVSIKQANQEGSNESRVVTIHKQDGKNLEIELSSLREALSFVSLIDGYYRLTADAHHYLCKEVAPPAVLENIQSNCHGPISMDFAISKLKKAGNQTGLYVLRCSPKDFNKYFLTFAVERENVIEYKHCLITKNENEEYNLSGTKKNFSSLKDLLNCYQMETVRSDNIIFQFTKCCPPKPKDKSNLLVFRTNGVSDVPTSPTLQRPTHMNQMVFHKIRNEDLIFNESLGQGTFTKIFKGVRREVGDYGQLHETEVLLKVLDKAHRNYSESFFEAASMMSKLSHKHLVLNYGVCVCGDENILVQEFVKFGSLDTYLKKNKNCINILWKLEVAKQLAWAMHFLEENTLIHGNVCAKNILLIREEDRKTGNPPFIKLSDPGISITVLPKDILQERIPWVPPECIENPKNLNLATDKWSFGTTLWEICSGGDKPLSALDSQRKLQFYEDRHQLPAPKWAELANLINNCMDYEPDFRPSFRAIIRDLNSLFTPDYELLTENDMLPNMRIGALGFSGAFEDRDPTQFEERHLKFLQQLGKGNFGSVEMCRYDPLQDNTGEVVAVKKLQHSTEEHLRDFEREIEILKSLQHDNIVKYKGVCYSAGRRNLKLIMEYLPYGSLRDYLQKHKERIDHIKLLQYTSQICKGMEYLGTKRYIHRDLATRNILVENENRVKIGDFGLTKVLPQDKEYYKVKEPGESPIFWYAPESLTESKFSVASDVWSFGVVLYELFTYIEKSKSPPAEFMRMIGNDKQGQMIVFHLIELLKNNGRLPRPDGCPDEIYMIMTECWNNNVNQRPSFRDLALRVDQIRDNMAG", "assay": "Competition binding assay, JAK2", "text": "as §1, §2"}, "[1]": {"system": "GM-CSFR/JAK2/STAT5 pathway in CSTF-1 cells", "assay": "CSTF-1 cell-based reporter assay (beta-lactamase, GM-CSF stimulated)", "details": "Homo sapiens; GM-CSF at 2 ng/mL, 4 hours; read-out: Cell Assay: CS TF-1 reporter assay IC50", "method": "CSTF-1 Cell-Based Reporter Assay\nCSTF-1 cells are derived from the human erythroleukemia cell line that is growth dependent on GM-CSF and has an intact GM-CSFR/JAK2/STAT5 pathway. The cell line contains stably integrated beta-lactamase reporter gene under the control of the […] (irf 1) response element recognized by the activated transcription factor STATS. csTF-1 cells (Invitrogen K1219) were washed with assay media (97% OPTIMEM/0.5% dialyzed FBS/0.1 mM NEAA/1 mM Na pyr/P/S) and seeded in the same media at 5×10^5 cell/mL in T150 flask. After 16 hour incubation, cells were seeded at 2×10^5 cell/well in 50 μl volume, into Costar, clear bottom, 96-well assay plates. Serial dilutions of compounds were added to the plates with final DMSO concentration at 0.5% and GM-CSF at 2 ng/mL and the plates were then incubated at […] and 5% CO2 for 4 hours. The plates were brought to room temperature before adding Substrate Mixture according to manufacturer's protocol (Invitrogen, Catalog #K1085). The assay plates containing the substrate mixture were incubated in the dark at room temperature for 2 hours. Blue and green fluorescence was measured with excitation at 409 nm and emission at 460 nm (for blue) and excitation at 409 nm and emission at 530 nm (for green) using Spectra Max Gemini EM."}, "JAK3": {"biological_target": "T3, JAK3 (Homo sapiens, UniProt P52333)", "T3 construct": "made in house", "T3 sequence (P52333 1-1124)": "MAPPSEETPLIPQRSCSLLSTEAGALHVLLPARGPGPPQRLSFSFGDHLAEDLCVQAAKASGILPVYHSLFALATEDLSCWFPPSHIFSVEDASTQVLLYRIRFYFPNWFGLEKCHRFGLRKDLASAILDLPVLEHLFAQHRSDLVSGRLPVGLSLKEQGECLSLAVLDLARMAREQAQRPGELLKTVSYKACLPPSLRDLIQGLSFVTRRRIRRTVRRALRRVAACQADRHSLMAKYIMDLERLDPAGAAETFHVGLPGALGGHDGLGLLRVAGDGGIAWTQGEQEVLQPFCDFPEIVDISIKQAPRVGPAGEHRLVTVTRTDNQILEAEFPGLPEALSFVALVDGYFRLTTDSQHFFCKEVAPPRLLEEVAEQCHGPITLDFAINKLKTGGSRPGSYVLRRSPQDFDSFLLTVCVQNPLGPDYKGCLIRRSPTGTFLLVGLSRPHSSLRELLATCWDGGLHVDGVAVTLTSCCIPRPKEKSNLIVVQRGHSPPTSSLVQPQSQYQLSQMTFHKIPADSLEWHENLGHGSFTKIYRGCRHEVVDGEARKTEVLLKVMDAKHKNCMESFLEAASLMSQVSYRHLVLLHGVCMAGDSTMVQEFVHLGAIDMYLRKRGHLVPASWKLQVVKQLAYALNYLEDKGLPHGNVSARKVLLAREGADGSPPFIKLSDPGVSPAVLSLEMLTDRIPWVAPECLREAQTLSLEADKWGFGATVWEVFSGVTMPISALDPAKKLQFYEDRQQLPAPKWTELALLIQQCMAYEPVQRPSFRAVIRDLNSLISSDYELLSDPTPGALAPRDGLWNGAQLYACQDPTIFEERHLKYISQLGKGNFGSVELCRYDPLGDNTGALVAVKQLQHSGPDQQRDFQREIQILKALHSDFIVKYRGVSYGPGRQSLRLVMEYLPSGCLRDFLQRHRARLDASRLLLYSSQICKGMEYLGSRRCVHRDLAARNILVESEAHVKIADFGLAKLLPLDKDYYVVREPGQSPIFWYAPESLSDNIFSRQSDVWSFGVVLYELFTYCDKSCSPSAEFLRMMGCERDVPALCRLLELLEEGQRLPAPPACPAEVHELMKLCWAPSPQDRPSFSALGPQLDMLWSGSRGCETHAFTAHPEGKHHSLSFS", "assay": "Competition binding assay, JAK3", "text": "as §1, §2"}, "[2]": {"system": "panel of distinct kinases excluding mutant variants, typically 359 or 386 kinases", "assay": "Kinase selectivity score S10 from binding panel", "details": "compound at 10 μM; fraction of kinases with inhibition of 90% or greater", "method": "as §2"}}, "data": [{"smiles": "Cc1cc(Nc2nc([C@]3(c4ccc(F)cc4)C[C@@H](F)C3)nc3ccccc23)n[nH]1", "note": "[Example 2, 2-((1R,3R)-3-fluoro-1-(4-fluorophenyl)cyclobutyl)-N-(5-methyl-1H-pyrazol-3-yl)quinazolin-4-amine]", "values": [{"measurement": "Kd", "setting": "TYK2", "result": "10 to 100", "unit": "nM"}, {"measurement": "Kd", "setting": "JAK2", "result": "1 to 10", "unit": "nM"}, {"measurement": "IC50", "setting": "[1]", "result": "> 500", "unit": "nM"}, {"measurement": "Kd", "setting": "JAK3", "result": "10 to 100", "unit": "nM"}, {"measurement": "S-Score: S(10) at 10 μM", "setting": "[2]", "result": "A (A≦0.3)"}]}, {"smiles": "Cc1cc(Nc2nc(C3(c4ccc(F)cc4)CCOCC3)nc3ccccc23)n[nH]1", "note": "[Example 4, 2-(4-(4-fluorophenyl)tetrahydro-2H-pyran-4-yl)-N-(5-methyl-1H-pyrazol-3-yl)quinazolin-4-amine]", "values": [{"measurement": "Kd", "setting": "TYK2", "result": "≤ 10", "unit": "nM"}, {"measurement": "Kd", "setting": "JAK2", "result": "1 to 10", "unit": "nM"}, {"measurement": "IC50", "setting": "[1]", "result": "100 to 500", "unit": "nM"}, {"measurement": "Kd", "setting": "JAK3", "result": "10 to 100", "unit": "nM"}, {"measurement": "S-Score: S(10) at 10 μM", "setting": "[2]", "result": "A (A≦0.3)"}]}, {"smiles": "Cc1cc(Nc2nc([C@]3(c4ccc(F)cc4)C[C@@H](O)C3)nc3ccccc23)n[nH]1", "note": "[Example 3, (1R,3R)-3-(4-fluorophenyl)-3-(4-((5-methyl-1H-pyrazol-3-yl)amino)quinazolin-2-yl)cyclobutanol]", "values": [{"measurement": "Kd", "setting": "TYK2", "result": "10 to 100", "unit": "nM"}, {"measurement": "Kd", "setting": "JAK2", "result": "≤ 1", "unit": "nM"}, {"measurement": "IC50", "setting": "[1]", "result": "100 to 500", "unit": "nM"}, {"measurement": "Kd", "setting": "JAK3", "result": "10 to 100", "unit": "nM"}, {"measurement": "S-Score: S(10) at 10 μM", "setting": "[2]", "result": "A (A≦0.3)"}]}, {"smiles": "Cc1cc(Nc2nc([C@]3(c4ccc(F)cc4)C[C@H](O)C3)nc3ccccc23)n[nH]1", "note": "[Example 1, (1S,3S)-3-(4-fluorophenyl)-3-(4-(5-methyl-1H-pyrazol-3-ylamino)quinazolin-2-yl)cyclobutanol]", "values": [{"measurement": "Kd", "setting": "TYK2", "result": "10 to 100", "unit": "nM"}, {"measurement": "Kd", "setting": "JAK2", "result": "≤ 1", "unit": "nM"}, {"measurement": "IC50", "setting": "[1]", "result": "100 to 500", "unit": "nM"}, {"measurement": "Kd", "setting": "JAK3", "result": "10 to 100", "unit": "nM"}, {"measurement": "S-Score: S(10) at 10 μM", "setting": "[2]", "result": "A (A≦0.3)"}]}]}
